The values that follow come from patent publication US20200317660A1, “Quinazolinone Compound and Application Thereof” (LUOXIN PHARMACEUTICAL (SHANGHAI) CO., LTD., priority 2017, published 2020).

The target of one experiment is T1, PI3Kδ (Homo sapiens, UniProt O00329).
T1 construct: purchased Millipore 14-604-K
Nature of the experiment: In vitro test of enzyme activity (ADP-Glo lipokinase), PI3K delta. The experiment is classed as biochemical. Particulars: 40 μM ATP, 50 μM PIP2:3PS, 120 min.

Experiment [1] concerns phosphorylation of PI3K downstream protein Akt in MCF7 cells. Briefly: In vitro test of cells activity: ELISA of Akt phosphorylation in MCF7 cells. It counts as cell-based. The following applies: Homo sapiens, MCF7, 2 h, 2 h compound, insulin 10 μg/mL stimulation, pAkt ELISA, read-out: MCF7 Cell IC50. In outline: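 MCF7 cells were serum-starved overnight, exposed to 10-point three-fold compound dilutions for 2 h at 37°C, then stimulated with 10 μg/mL insulin for 30 min. Lysates were assayed for phospho-Akt by ELISA.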

The next experiment has as its target T2, PI3Kα (Homo sapiens, UniProt P42336).
T2 construct: purchased Millipore 14-602-K
Briefly: In vitro test of enzyme activity (ADP-Glo lipokinase), PI3K alpha. The experiment is classed as biochemical. The following applies: 40 μM ATP, 50 μM PIP2:3PS, 120 min. (ADP-Glo first removes unused ATP, then detects ADP through luciferase.)

T1 sequence (O00329 whole entry): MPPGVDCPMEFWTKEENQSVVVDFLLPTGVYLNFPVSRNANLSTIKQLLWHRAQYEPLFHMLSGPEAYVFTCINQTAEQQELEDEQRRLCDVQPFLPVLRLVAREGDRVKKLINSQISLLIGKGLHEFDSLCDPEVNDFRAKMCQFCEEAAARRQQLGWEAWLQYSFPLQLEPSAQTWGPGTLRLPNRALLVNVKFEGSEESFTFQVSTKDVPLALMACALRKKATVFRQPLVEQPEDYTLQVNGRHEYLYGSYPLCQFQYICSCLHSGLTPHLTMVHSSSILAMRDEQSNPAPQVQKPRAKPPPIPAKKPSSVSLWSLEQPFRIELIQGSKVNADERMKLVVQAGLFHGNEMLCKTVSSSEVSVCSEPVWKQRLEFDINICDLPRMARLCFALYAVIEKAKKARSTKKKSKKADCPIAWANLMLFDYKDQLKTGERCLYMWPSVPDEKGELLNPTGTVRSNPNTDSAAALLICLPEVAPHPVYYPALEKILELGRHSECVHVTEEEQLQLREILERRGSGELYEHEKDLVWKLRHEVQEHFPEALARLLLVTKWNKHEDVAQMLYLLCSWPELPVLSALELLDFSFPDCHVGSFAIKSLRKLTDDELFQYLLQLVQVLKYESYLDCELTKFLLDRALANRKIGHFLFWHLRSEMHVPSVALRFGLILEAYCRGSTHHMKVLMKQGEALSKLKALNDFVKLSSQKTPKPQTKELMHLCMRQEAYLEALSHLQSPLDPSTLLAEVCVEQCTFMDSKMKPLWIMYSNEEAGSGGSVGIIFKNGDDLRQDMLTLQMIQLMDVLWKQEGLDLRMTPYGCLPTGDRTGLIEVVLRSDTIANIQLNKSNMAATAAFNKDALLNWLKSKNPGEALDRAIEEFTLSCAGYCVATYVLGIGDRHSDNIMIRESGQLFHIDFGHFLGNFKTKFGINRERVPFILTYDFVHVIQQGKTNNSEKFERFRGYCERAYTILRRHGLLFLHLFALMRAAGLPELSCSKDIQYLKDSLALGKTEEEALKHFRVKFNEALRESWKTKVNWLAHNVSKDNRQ
T1 sequence (P27986 whole entry partner): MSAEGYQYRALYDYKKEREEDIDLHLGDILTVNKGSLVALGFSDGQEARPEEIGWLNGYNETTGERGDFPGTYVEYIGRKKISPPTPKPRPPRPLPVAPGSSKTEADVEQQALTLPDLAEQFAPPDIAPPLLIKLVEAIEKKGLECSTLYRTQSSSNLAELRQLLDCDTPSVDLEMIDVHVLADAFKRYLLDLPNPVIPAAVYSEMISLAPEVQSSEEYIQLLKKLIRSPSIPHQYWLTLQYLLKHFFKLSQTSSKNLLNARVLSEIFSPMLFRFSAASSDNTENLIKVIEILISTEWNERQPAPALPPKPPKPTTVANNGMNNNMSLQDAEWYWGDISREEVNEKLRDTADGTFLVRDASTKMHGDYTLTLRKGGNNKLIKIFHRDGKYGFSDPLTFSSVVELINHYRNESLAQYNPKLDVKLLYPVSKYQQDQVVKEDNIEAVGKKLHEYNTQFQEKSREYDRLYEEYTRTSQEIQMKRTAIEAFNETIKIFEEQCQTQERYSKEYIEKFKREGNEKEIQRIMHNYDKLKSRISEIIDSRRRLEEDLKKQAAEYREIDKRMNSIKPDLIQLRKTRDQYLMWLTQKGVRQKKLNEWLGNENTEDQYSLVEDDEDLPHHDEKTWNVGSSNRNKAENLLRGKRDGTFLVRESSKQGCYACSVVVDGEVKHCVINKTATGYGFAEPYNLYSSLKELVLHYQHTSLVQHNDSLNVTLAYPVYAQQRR
T2 sequence (P42336 whole entry): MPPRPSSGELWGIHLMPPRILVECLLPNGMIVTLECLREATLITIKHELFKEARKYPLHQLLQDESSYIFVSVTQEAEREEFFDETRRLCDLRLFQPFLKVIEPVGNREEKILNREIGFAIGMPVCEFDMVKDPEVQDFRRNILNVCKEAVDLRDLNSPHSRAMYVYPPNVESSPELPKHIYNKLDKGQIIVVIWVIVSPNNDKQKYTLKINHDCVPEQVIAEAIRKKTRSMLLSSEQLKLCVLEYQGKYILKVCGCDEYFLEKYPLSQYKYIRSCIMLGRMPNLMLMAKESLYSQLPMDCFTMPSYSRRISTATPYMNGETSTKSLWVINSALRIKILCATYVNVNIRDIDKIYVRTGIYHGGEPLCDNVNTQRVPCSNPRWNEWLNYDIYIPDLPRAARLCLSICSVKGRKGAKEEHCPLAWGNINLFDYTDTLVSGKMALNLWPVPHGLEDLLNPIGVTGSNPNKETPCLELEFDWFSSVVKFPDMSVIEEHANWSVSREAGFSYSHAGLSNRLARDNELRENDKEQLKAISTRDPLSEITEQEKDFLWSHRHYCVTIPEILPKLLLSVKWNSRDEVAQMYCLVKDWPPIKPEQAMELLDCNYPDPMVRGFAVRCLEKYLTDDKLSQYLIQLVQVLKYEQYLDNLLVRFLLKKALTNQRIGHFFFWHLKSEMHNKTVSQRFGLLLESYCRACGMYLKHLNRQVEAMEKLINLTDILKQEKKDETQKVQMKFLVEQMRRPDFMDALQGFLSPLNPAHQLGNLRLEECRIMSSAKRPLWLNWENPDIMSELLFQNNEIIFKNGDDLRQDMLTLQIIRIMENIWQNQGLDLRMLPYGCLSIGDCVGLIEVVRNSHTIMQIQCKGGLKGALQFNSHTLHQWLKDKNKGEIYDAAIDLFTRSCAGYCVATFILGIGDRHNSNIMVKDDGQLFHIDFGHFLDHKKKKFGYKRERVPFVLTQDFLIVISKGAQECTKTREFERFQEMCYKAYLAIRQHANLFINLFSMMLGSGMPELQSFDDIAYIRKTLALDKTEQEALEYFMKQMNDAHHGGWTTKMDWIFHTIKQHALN
T2 sequence (P27986 whole entry partner): as the sequence (P27986 whole entry partner) above

For the compound `CNC(=O)CCCn1cnc2ccc(-c3cnc(OC)c(NS(=O)(=O)c4ccc(F)cc4Cl)c3)cc2c1=O` [WX198], the IC50 (in general, the midpoint of a concentration-inhibition curve) is 2.1 nM on PI3Kδ, 9.43 nM in experiment [1] and 1.1 nM on PI3Kα.
